Here are results for six compounds from ChEMBL document CHEMBL5230098, “The ups and downs of Poly(ADP-ribose) Polymerase-1 inhibitors in cancer therapy-Current progress and future direction” (Eur J Med Chem, 2020).

A short description of series [1]: Aqueous solubility of compound. It is filed as physicochemical.
The nature of series [2]: Oral bioavailability in Sprague-Dawley rat at 4 mg/kg administered as single dose measured for 24 hrs by HPLC/tandem mass spectrometry. Type of series: ADME, organism-based. Particulars: in vivo.
Series [3] concerns the target Poly [ADP-ribose] polymerase 1 (Homo sapiens, UniProt P09874). The series is described as follows: Inhibition of PARP1 (unknown origin).

The term solubility denotes how much of the substance goes into solution per volume. High values mean a readily soluble substance, low ones a poorly soluble substance. One may read the bioavailability as the share of a dose that reaches the circulation, judged against a reference dose that is usually intravenous. As usually defined, the IC50 is the concentration needed to halve the response being measured. The low end stands for inhibition by little substance, the high end for a need for much substance. The term Ki denotes the dissociation constant of the complex between target and ligand, obtained from inhibition or displacement. A lower Ki goes with tighter binding.

Each structure is given as a SMILES string.

Poly [ADP-ribose] polymerase 1, sequence (P09874 whole entry): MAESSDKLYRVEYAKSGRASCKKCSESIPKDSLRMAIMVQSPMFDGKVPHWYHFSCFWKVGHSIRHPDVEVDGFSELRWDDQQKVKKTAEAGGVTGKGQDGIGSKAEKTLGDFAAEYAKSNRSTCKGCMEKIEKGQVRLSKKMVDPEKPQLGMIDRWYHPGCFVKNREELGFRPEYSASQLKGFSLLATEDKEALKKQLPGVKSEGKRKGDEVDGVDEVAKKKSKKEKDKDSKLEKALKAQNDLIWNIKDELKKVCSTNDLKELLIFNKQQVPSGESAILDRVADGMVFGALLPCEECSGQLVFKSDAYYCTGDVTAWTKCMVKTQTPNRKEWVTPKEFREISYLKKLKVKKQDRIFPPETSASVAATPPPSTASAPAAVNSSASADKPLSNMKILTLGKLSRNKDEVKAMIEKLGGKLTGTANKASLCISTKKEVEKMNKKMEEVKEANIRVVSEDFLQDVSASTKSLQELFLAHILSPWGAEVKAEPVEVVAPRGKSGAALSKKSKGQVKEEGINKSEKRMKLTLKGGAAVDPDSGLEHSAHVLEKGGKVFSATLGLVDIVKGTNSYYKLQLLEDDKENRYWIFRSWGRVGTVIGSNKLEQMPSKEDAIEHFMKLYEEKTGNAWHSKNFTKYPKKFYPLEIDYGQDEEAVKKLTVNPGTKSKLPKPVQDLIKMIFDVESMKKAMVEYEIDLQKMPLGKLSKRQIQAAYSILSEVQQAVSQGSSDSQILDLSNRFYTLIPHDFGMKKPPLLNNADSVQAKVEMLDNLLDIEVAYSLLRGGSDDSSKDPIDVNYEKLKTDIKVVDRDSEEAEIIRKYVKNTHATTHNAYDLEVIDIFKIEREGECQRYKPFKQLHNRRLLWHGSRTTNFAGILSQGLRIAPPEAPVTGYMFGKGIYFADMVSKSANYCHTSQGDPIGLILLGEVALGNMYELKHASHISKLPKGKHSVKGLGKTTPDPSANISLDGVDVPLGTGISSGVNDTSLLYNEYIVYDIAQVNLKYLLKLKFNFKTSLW

Compound `CNCc1ccc(-c2cc3cc(F)cc(C(N)=O)c3o2)cc1.Cl` had a solubility in series [1] above 35 mg/mL.
Take `O=C(c1cc(Cc2n[nH]c(=O)c3ccccc23)ccc1F)N1CCn2nc(C(F)(F)F)nc2C1` [FLUZOPARIB]: in series [2], the bioavailability is 35.8%.
In the case of `O=C1NCCc2c(OCCCCN3CCCCC3)cccc21`, the midpoint of inhibition in series [3], the IC50, lay at 150 nM.
In series [3], `O=C1CCC(=O)N1c1cc(Cc2n[nH]c(=O)c3ccccc23)ccc1F` yielded a Ki of 12 nM.
On to `Cc1cccc2c1CCNC2=O`, for which, in series [3], the IC50 was determined as 150 nM.
The same measure, in the same setting: in the case of `COc1cccc(C(N)=O)c1` it was 30000 nM.
